Key:
Assay type in all cases: in vivo
[1] = system: mice; experiment: Determination of acute toxicity in mice after intravenous administration; conditions: 35 mg/kg i.v., observation period 14 days
Method: (§1) The acute toxicity of the test compound was determined in mice (observationperiod: 14 days) after intravenous administration.

[2] = as above; conditions: mouse, in vivo, iv, observation period 14 days
Method: as §1

[3] = system: blood circulation; experiment: Effect on blood circulation in anesthetized dogs (i.v.); parameters: Duration: unit not given here; conditions: for Effect on average arterial blood pressure (first figure of the pair): figure before the slash; for Decrease in contractility dp/dt max: left ventricle
Method: The blood circulation tests were carried out on dogs with a body weight of 18-29 kg under chloraloseurethane-nembutal anesthesia (54+270+10 mg/kg i.v.). After opening the thorax in the 4th left intercostal space the animals were ventilated with room air by means of a Harvard respirator. The arterial blood pressure was measured in the arteria carotis by a Statham pressure transducer; the heart rate was measured electronically from the sequence of the R-peaks of the electrocardiogram. The maximum rate of pressure increase ([…]) in the left ventricula was measured by means of a Konigsberg pressure received and a Grass differential amplifier. All parameters were recorded by means of a direct-writer. For anticoagulation the animals were injected i.v. with a solution of 10 mg/kg of sodium polyethylenesulfonate in 20% polydiol. The test compounds were administered intravenously to groups of 3 to 4 dogs.

SMILES: COc1ccc2nc(-c3ccc(OCC(O)CN(C)CCc4ccc(OC)c(OC)c4)cc3)n(C)c(=O)c2c1.Cl.Cl (centres unmarked) [B, 2-{4-[2-Hydroxy-3-(2-(3,4-dimethoxy-phenyl)-N-methylethylamino)-propoxy]-phenyl}-3-methyl-6-methoxy-3,4-dihydro-quinazolin-4-one dihydrochloride]
- Acute toxicity: animals died [1]: 0 out of 5
- LD50 at 336 h [2]: > 35 mg/kg
- Decrease in heart rate ([3]; 1.0 mg/kg i.v.): -28 min⁻¹
- Duration ([3]; 1.0 mg/kg i.v.): 45
- Effect on average arterial blood pressure (first figure of the pair) ([3]; 1.0 mg/kg i.v.): -16 mm Hg
- Decrease in contractility dp/dt max ([3]; 1.0 mg/kg i.v.): -17

SMILES: COc1ccc2nc(-c3ccc(OCC(O)CNCCc4ccccc4OC)cc3)n(C)c(=O)c2c1.Cl.Cl (centres unmarked) [C, 2-{4-[2-Hydroxy-3-(2-(2-methoxy-phenyl)-ethylamino)-propoxy]-phenyl}-3-methyl-6-methoxy-3,4-dihydroquinazolin-4-one dihydrochloride]
- Acute toxicity: animals died [1]: 0 out of 5
- LD50 at 336 h [2]: > 35 mg/kg
- Decrease in heart rate ([3]; 1.0 mg/kg i.v.): -22 min⁻¹
- Duration ([3]; 1.0 mg/kg i.v.): > 36
- Effect on average arterial blood pressure (first figure of the pair) ([3]; 1.0 mg/kg i.v.): +1 mm Hg
- Decrease in contractility dp/dt max ([3]; 1.0 mg/kg i.v.): -14

SMILES: COc1ccc2nc(-c3ccc(OCC(O)CNC(C)(C)C)cc3)n(C)c(=O)c2c1 (centres unmarked) [Compound A, 2-[4-(2-Hydroxy-3-tert.butylamino-propoxy)-phenyl]-3-methyl-6-methoxy-3,4-dihydro-quinazolin-4-one]
- Acute toxicity: animals died [1]: 0 out of 5
- LD50 at 336 h [2]: > 35 mg/kg
- Decrease in heart rate ([3]; 0.5 mg/kg i.v.): -21 min⁻¹
- Duration ([3]; 0.5 mg/kg i.v.): > 55
- Effect on average arterial blood pressure (second figure of the pair) ([3]; 0.5 mg/kg i.v., figure after the slash): -8 mm Hg
- Effect on average arterial blood pressure (first figure of the pair) ([3]; 0.5 mg/kg i.v.): -20 mm Hg
- Decrease in contractility dp/dt max ([3]; 0.5 mg/kg i.v.): -33

SMILES: COc1ccc2nc(-c3ccc(OCC(O)CNC(C)C)cc3)n(C)c(=O)c2c1 (centres unmarked) [D, 2-[4-(2-Hydroxy-3-isopropylamino-propoxy)-phenyl]-3-methyl-6-methoxy-3,4-dihydro-quinazolin-4-one]
- Decrease in heart rate ([3]; 1.0 mg/kg i.v.): -30 min⁻¹
- Duration ([3]; 1.0 mg/kg i.v.): > 40
- Effect on average arterial blood pressure (first figure of the pair) ([3]; 1.0 mg/kg i.v.): -5 mm Hg
- Decrease in contractility dp/dt max ([3]; 1.0 mg/kg i.v.): -27

SMILES: COc1cc2nc(-c3ccc(OCC(O)CNCCOc4ccccc4C)cc3)n(C)c(=O)c2cc1OC (centres unmarked) [E, 2-{4-[2-Hydroxy-3-(2-(2-methyl-phenoxy)-ethylamino)-propoxy]-phenyl}-3-methyl-6,7-dimethoxy-3,4-dihydroquinazolin-4-one]
- Acute toxicity: animals died [1]: 0 out of 5
- LD50 at 336 h [2]: > 35 mg/kg
- Decrease in heart rate ([3]; 1.0 mg/kg i.v.): -11 min⁻¹
- Duration ([3]; 1.0 mg/kg i.v.): > 36
- Effect on average arterial blood pressure (first figure of the pair) ([3]; 1.0 mg/kg i.v.): -13 mm Hg
- Decrease in contractility dp/dt max ([3]; 1.0 mg/kg i.v.): -14

SMILES: COc1cccc2c(=O)n(C)c(-c3ccc(OCCCNCC(O)COc4cccc(C)c4)cc3)nc12 (centres unmarked) [F, 2-{4-[3-(2-Hydroxy-3-(3-methyl-phenoxy)-propylamino)-propoxy]-phenyl}-3-methyl-8-methoxy-3,4-dihydroquinazolin-4-one]
- Acute toxicity: animals died [1]: 0 out of 5
- LD50 at 336 h [2]: > 35 mg/kg
- Decrease in heart rate ([3]; 1.0 mg/kg i.v.): -23 min⁻¹
- Duration ([3]; 1.0 mg/kg i.v.): > 63
- Effect on average arterial blood pressure (first figure of the pair) ([3]; 1.0 mg/kg i.v.): -11 mm Hg
- Decrease in contractility dp/dt max ([3]; 1.0 mg/kg i.v.): -23

Source: patent US4379788A, “2-Phenyl-pyrimidones” (Dr. Karl Thomae Gesellschaft mit beschrankter Haftung, priority 1980, dated 1983)
